# In ChEMBL document CHEMBL1150751, “Bioactive components of Allamanda schottii” (J Nat Prod, 1988):
# Activity calls are given as the source filed them. The calls are words filed in the database; no cut-off is given here.
# What was measured:
# [1] = tested on: Agrobacterium tumefaciens; assay: Antitumor activity against Agrobacterium tumefaciens-induced crown gall tumor in potato tubers by potato disk assay; type: functional
# [2] = Cytotoxicity against human 9KB cells; type: functional; conditions: read-out: ED50 (the source's name)
# Artemia = assay: Toxicity in brine shrimp; type: organism-based; conditions: in vivo
# P388 = assay: Antileukemic activity against mouse P388 cells xenografted in mouse; type: functional
Compound,inhibition (INH) [1],EC50 [2],LC50 (Artemia),T/C (P388),inhibition [1]
C/C=C1/C(=O)O[C@@]23C=C[C@H]4[C@@H](C(=O)OC)[C@H](O)O[C@@H](O[C@H]12)[C@H]43 [ALLAMANDIN],51%,2.1 µg/mL,21.3 ppm,145%,
C/C=C1/C(=O)O[C@@]23C=C[C@H]4C[C@H](O)O[C@@H](O[C@H]12)[C@H]43 [ALLAMCIN],,,> 1000 ppm,,inactive
C/C=C1\C(=O)O[C@]23C=C[C@@H]4C(C(=O)OC)=CO[C@H](O[C@@H]12)[C@@H]43 [ISOPLUMERICIN],44%,2.7 µg/mL,1.7 ppm,145%,
COc1cc2ccc(=O)oc2cc1O [SCOPOLETIN],20%,16 µg/mL,55 ppm,133%,
COc1cc2ccc(=O)oc2cc1OC [SCOPARONE],,61 µg/mL,349 ppm,,inactive
C/C=C1/C(=O)O[C@]23C=C[C@@H]4C(C(=O)OC)=CO[C@H](O[C@@H]12)[C@@H]43 [PLUMERICIN],44%,2.6 µg/mL,1.7 ppm,,
COc1cc([C@H]2OC[C@H]3[C@@H]2CO[C@H]3c2ccc(O)c(OC)c2)ccc1O [PINORESINOL],,100 µg/mL,377 ppm,,inactive
